Source: US9005636B2, “Pharmaceutical composition comprising metformin and rosuvastatin” (BCWorld Pharm Co., Ltd., priority 2009, dated 2015)

How the values were obtained:
Type in all cases: cell-based, rat
PGC-1 α = assay: ELISA of PGC-1 α protein expression
L6 muscle cells [1] = assay: Cell morphology (confluence) of L6 muscle cells by microscope; settings: 48 hours
Procedure: (§1) Rat myoblast cell line L6 used herein was obtained from Korean Cell Line Bank. Cells were cultured until the number of cells reached 1×10^6 in T-75 flask (BD Biosciences) using DMEM (Dulbecco's Modified Eagle medium) supplemented with 4.5 g/L of D-glucose, L-glutamine, 0.11 g/L of sodium pyruvate and 10% FBS (Fetal bovine serum, Gibco; Invitrogen Corp., CA, USA). To differentiate cells, the medium with 2% HS (Horse serum, Gibco; Invitrogen Corp., CA, USA) was inoculated and the cells were incubated at 37° C. in 5% CO2 incubator (Forma scientific, Germany). The medium was replaced every 2 days and subculture was conducted every 3 to 4 days. In addition, the myoblast cells, used in this experiment, were differentiated up to 0.3×10^6 in 6 well plate (BD biosciences) before they were used. After the washing step with PBS (Gibco; Invitrogen Corp., CA, USA), the cells were used for ELISA, MTT and PCR analysis.
To compare the morphology of L6 muscle cells on the concentration of metformin, 0.5×10^5 muscle cells were seeded onto each well in 6 well plate (Falcon) and incubated at 37° C. in 5% CO2 incubator for 24 hours. 20 μM of rosuvastatin was treated and 0, 1, 10, 20, and 100 μM of metformin was treated, respectively. After 48 hours, all of them were observed using a microscope (IS-70, Olympus),

Atrogin-1 = assay: ELISA of Atrogin-1 protein expression; settings: as the concentration of rosuvastatin was increased
Procedure: as §1, with “analysis. […] Non-bound material was removed after washing four times with phosphate-buffered saline containing 0.2% tween 20 (PBS-T). The plate was washed 4 times with PBS buffer containing 0.2% Tween 20; and 200 μl of blocking solution (GenDEPOT) containing 1% BSA (Bovine Serum Albumin) with PBS was seeded onto each well and incubated for 2 hours at 4° C. […] Lastly, the absorbance was measured at 450 nm using an ELISA reader.” for “analysis.”

L6 muscle cells [2] = assay: MTT assay, viability of L6 muscle cells; settings: 20 μM of rosuvastatin only, 48 hours
Procedure: MTT assay was carried out to determine the viability of L6 muscle cells. 1×10^4 cells were seeded onto each well in 96 well plate and incubated at 37° C. in 5% CO2 incubator for 24 hours.
20 μM of rosuvastatin was treated and 0, 1, 10, 20 and 100 μM of metformin was treated, respectively. […] Lastly, the optical density of formazan was measured at 570 nm using an ELISA Reader.

Atrogin-1 mRNA = assay: RT-PCR of Atrogin-1 mRNA in L6 muscle cells; settings: 20 μM of rosuvastatin
Procedure: as §1
To measure the mRNA level of Atrogen-1 in muscle cells depending on concentration of metformin, the cells were homogenized in 500 μl of Trizol (Invitrogen) and 3 μg of total RNA was collected using a cell scraper. […]

confluence of L6 cells compared to the group without treatment (L6 muscle cells [1]; 20 μM of rosuvastatin) | SMILES | protein level of PGC-1 α compared to negative control (PGC-1 α; 0.1 μM of metformin) | protein level of PGC-1 α (PGC-1 α; more than 1 μM of metformin) | confluence of L6 cells (L6 muscle cells [1]; 20 μM of rosuvastatin plus 1, 10, 20, 100 μM of metformin) | protein expression of Atrogin-1 (Atrogin-1) | viability of the cells (MTT) (L6 muscle cells [2]) | mRNA expression of Atrogin-1 compared to negative control (Atrogin-1 mRNA)
 | CN(C)C(=N)N=C(N)N [metformin] | did not show a significant difference | increase | increased as the concentration of metformin increased |  |  | 
decreased significantly | CC(C)c1nc(N(C)S(C)(=O)=O)nc(-c2ccc(F)cc2)c1/C=C/[C@@H](O)C[C@@H](O)CC(=O)O [rosuvastatin] |  |  |  | increased | significant decrease | increased
